From patent US7534894B2, “Biphenyloxy-acids” (Wyeth, priority 2003, dated 2009) come the findings set out here.

Data set [1] deals with T1, recombinant human plasminogen activator inhibitor-1 (PAI-1) (Homo sapiens, UniProt P05121).
T1 construct: purchased Molecular Innovations, Royal Oak, Mich
Nature of the data set: Primary Screen for the PAI-1 Inhibition (residual tPA activity, chromogenic substrate Spectrozyme-tPA). The class given is biochemical. Particulars: 140 nM PAI-1, 70 nM tPA, pH 6.6; for inhibition at 25 µM: 25 μM test compound; for inhibition at 100 µM: 100 μM test compound. On the procedure:
Test compounds are dissolved in DMSO at a final concentration of 10 mM, then diluted 101× in physiologic buffer. The inhibitory assay is initiated by the addition of the test compound (1-100 μM final concentration, maximum DMSO concentration of 0.2%) in a pH 6.6 buffer containing 140 nM recombinant human plasminogen activator inhibitor-1 (PAI-1; Molecular Innovations, Royal Oak, Mich.). Following a 1 hour incubation at room temperature, 70 nM of recombinant human tissue plasminogen activator (tPA) is added, and the combination of the test compound, PAI-1 and tPA is incubated for an additional 30 minutes. Following the second incubation, Spectrozyme-tPA (American Diagnostica, Greenwich, Conn.), a chromogenic substrate for tPA, is added and absorbance read at 405 nm at 0 and 60 minutes. Relative PAI-1 inhibition is equal to the residual tPA activity in the presence of the test compound and PAI-1. Control treatments include the complete inhibition of tPA by PAI-1 at the molar ratio employed (2:1), and the absence of any effect of the test compound on tPA alone.

For a further data set, the target named is human PAI-1 (Homo sapiens, UniProt P05121). Nature of the data set: Antibody Assay for Determining IC50 of Inhibition of PAI-1 (active PAI-1 bound to tPA-coated plate, 33B8 antibody). The class given is binding. Particulars: test compound incubated with human PAI-1 50 ng/ml, pH 7.5. On the procedure:
This assay is based upon the non-SDS dissociable interaction between tPA and active PAI-1. Assay plates are initially coated with human tPA (10 μg/ml). Test compounds of the present invention are dissolved in DMSO at 10 mM, then diluted with physiologic buffer (pH 7.5) to a final concentration of 1-50 μM. Test compounds are incubated with human PAI-1 (50 ng/ml) for 15 minutes at room temperature. The tPA-coated plate is washed with a solution of 0.05% Tween 20 and 0. 1% BSA, then the plate is blocked with a solution of 3% BSA. An aliquot of the substituted biphenyloxy acid/PAI-1 solution is then added to the tPA-coated plate, incubated at room temperature for 1 hour, and washed. Active PAI-1 bound to the plate is assessed by adding an aliquot of a 1:1000 dilution of the 33B8 monoclonal antibody against human PAI-1, and incubating the plate at room temperature for 1 hour (Molecular Innovations, Royal Oak, Mich.). The plate is again washed, and a solution of goat anti-mouse IgG-alkaline phosphatase conjugate is added at a 1:50,000 dilution in goat serum. The plate is incubated 30 minutes at room temperature, washed, and a solution of alkaline phosphatase substrate is added. The plate is incubated 45 minutes at room temperature, and color development is determined at OD405nm. The quantitation of active PAI-1 bound to tPA at varying concentrations of the test compound is used-to determine the IC50. Results are analyzed using a logarithmic best-fit equation. The assay sensitivity is 5 ng/ml of human PAI-1 as determined from a standard curve ranging from 0-100 ng/ml.

T1 sequence (P05121 24-402): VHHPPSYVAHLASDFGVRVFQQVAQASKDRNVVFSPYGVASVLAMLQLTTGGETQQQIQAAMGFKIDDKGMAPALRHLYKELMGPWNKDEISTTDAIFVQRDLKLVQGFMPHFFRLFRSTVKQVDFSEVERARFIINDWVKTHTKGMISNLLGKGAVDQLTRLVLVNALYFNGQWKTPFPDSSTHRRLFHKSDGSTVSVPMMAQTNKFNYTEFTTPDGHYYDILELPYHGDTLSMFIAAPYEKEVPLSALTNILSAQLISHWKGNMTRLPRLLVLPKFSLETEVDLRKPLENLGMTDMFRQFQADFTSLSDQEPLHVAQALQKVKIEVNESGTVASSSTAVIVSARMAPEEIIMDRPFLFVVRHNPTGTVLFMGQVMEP
Sequence of human PAI-1 (P05121 24-402): as above

As a reminder, the inhibition is the change of the read-out against control, counted positive when it falls. The IC50 is the concentration that gives 50% inhibition. What is called melting point is the temperature, or range, at which the solid turns liquid. In turn, `CCCCc1oc2ccccc2c1C(=O)N(C)Cc1ccc(-c2ccc(OC(Cc3ccccc3)C(=O)O)c(Br)c2)cc1` (stereo not shown) [Compound 8, 2-[(3-bromo-4′-{[[(2-butyl-1-benzofuran-3-yl)carbonyl](methyl)amino]methyl}-1,1′-biphenyl-4-yl)oxy]-3-phenylpropanoic acid] showed a melting point of 79 to 86 °C. In addition, in data set [1], the inhibition at 25 µM was found to be 55% and the inhibition at 100 µM came to 96%. It took 20 µM to reach half-maximal inhibition at human PAI-1 (IC50).

As for `CN(Cc1ccc(-c2ccc(OCc3nnn[nH]3)c(Br)c2)cc1)C(=O)c1cn(C)c2ccccc12` [Compound 9, N-{[3′-bromo-4′-(1H-tetraazol-5-ylmethoxy)-1,1′-biphenyl-4-yl]methyl}-N,1-dimethyl-1H-indole-3-carboxamide], the melting point is 239 °C. Besides, in data set [1], the inhibition at 25 µM is 41% and the inhibition at 100 µM came out at 81%. This molecule gave a concentration for half-maximal inhibition (IC50) against human PAI-1 of 46.3 µM.

`CN(Cc1ccc(-c2ccc(OCc3nnn[nH]3)c(Br)c2)cc1)C(=O)c1cn(Cc2ccccc2)c2ccccc12` [Compound 10, 1-Benzyl-N-{[3′-bromo-4′-(1H-tetraazol-5-ylmethoxy)-1,1′-biphenyl-4-yl]methyl}-N-methyl-1H-indole-3-carboxamide]: in data set [1], the inhibition at 25 µM was found to be 45% and the inhibition at 100 µM amounted to 76%. Also, the concentration for half-maximal inhibition (IC50) against human PAI-1 is 30 µM.

For the molecule `CCCCc1oc2ccccc2c1C(=O)N(C)Cc1ccc(-c2ccc(OCC(=O)O)c(Br)c2)cc1` [Compound 7, [(3-bromo-4′-{[[(2-butyl-1-benzofuran-3-yl)carbonyl](methyl)amino]methyl}-1,1′-biphenyl-4-yl)oxy]acetic acid], the melting point is 72 to 78 °C. Further, in data set [1], the inhibition at 25 µM was found to be 64% and the inhibition at 100 µM was determined as 100%. For the same molecule, at human PAI-1, the midpoint of inhibition, the IC50, lay at 18.7 µM.

In the case of `CCCCc1oc2ccccc2c1C(=O)N(C)Cc1ccc(-c2ccc(OCc3nnn[nH]3)c(Br)c2)cc1` [Compound 6, N-{[3′-bromo-4′-(1H-tetraazol-5-ylmethoxy)-1,1′-biphenyl-4-yl]methyl}-2-butyl-N-methyl-1-benzofuran-3-carboxamide], in data set [1], the inhibition at 25 µM is 42% and the inhibition at 100 µM stood at 94%. Moreover, the IC50 against human PAI-1 came to 10.8 µM.

The molecule `CCCc1c(C(=O)NCc2ccc(-c3ccc(OCC(=O)O)c(Br)c3)cc2)cnn1-c1ccccc1` [Compound 3, {[3-bromo-4′-({[(1-phenyl-5-propyl-1H-pyrazol-4-yl)carbonyl]amino}methyl)[1,1′-biphenyl]-4-yl]oxy}acetic acid] had a melting point of 204 to 206 °C. Besides, in data set [1], the inhibition at 25 µM was 47% and the inhibition at 100 µM was 88%. For the same molecule, at human PAI-1, the half-maximal inhibitory concentration (IC50) came out at 37.5 µM.
